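Test compounds were applied to cells in 96-well plates for 48 hours at 5 doses. The concentration for full growth arrest is given as TGI.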
Columns and labels:
Experiment in all cases: inhibition of tumour cell growth, NCI panel, 48 h
SK-MEL-2 melanoma = tested on: SK-MEL-2 melanoma
HCC-2998 colon = tested on: HCC-2998 colon
HCT-15 colon = tested on: HCT-15 colon
MDA-MB-231 breast = tested on: MDA-MB-231 breast
A498 renal = tested on: A498 renal
NCI-H23 lung = tested on: NCI-H23 lung
HCT-116 colon = tested on: HCT-116 colon
NCI/ADR-RES ovarian = tested on: NCI/ADR-RES ovarian
UACC-257 melanoma = tested on: UACC-257 melanoma
OVCAR-3 ovarian = tested on: OVCAR-3 ovarian
OVCAR-5 ovarian = tested on: OVCAR-5 ovarian
HT29 colon = tested on: HT29 colon
PC-3 prostate = tested on: PC-3 prostate
SF-539 CNS = tested on: SF-539 CNS
K-562 leukemia = tested on: K-562 leukemia
U251 CNS = tested on: U251 CNS
UO-31 renal = tested on: UO-31 renal
MCF7 breast = tested on: MCF7 breast
SW-620 colon = tested on: SW-620 colon
SK-MEL-5 melanoma = tested on: SK-MEL-5 melanoma
MDA-MB-435 = tested on: MDA-MB-435
KM12 colon = tested on: KM12 colon
NCI-H522 lung = tested on: NCI-H522 lung
ACHN renal = tested on: ACHN renal
EKVX NSCLC = tested on: EKVX NSCLC
NCI-H226 lung = tested on: NCI-H226 lung
SF-268 CNS = tested on: SF-268 CNS
LOX IMVI melanoma = tested on: LOX IMVI melanoma
DU-145 prostate = tested on: DU-145 prostate
SK-MEL-28 melanoma = tested on: SK-MEL-28 melanoma
RPMI-8226 leukemia = tested on: RPMI-8226 leukemia
M14 melanoma = tested on: M14 melanoma
TK-10 renal = tested on: TK-10 renal
OVCAR-4 ovarian = tested on: OVCAR-4 ovarian
SF-295 CNS = tested on: SF-295 CNS
HOP-92 NSCLC = tested on: HOP-92 NSCLC
MDA-N = tested on: MDA-N
OVCAR-8 ovarian = tested on: OVCAR-8 ovarian
HL-60(TB) leukemia = tested on: HL-60(TB) leukemia
CAKI-1 renal = tested on: CAKI-1 renal
NCI-H460 lung = tested on: NCI-H460 lung
T-47D breast = tested on: T-47D breast
HOP-62 NSCLC = tested on: HOP-62 NSCLC
RXF 393 renal = tested on: RXF 393 renal
SK-OV-3 ovarian = tested on: SK-OV-3 ovarian
MOLT-4 leukemia = tested on: MOLT-4 leukemia
CCRF-CEM leukemia = tested on: CCRF-CEM leukemia
IGROV1 ovarian = tested on: IGROV1 ovarian
HS 578T breast = tested on: HS 578T breast
786-0 renal = tested on: 786-0 renal
SR leukemia = tested on: SR leukemia

CC1=NN(c2nc(N)nc(/C(C#N)=C\C3COc4ccccc4C3=O)n2)C(C)(C)C1 (stereo unspecified)
TGI (SK-MEL-2 melanoma): 42.3 µM
TGI (HCC-2998 colon): > 100 µM
TGI (HCT-15 colon): > 100 µM
TGI (MDA-MB-231 breast): > 100 µM
TGI (A498 renal): 63 µM
TGI (NCI-H23 lung): 90.5 µM
TGI (HCT-116 colon): 75 µM
TGI (NCI/ADR-RES ovarian): 35.9 µM
TGI (UACC-257 melanoma): > 100 µM
TGI (OVCAR-3 ovarian): > 100 µM
TGI (OVCAR-5 ovarian): > 100 µM
TGI (HT29 colon): 69 µM
TGI (PC-3 prostate): 77.7 µM
TGI (SF-539 CNS): > 100 µM
TGI (K-562 leukemia): > 100 µM
TGI (U251 CNS): > 100 µM
TGI (UO-31 renal): 96.8 µM
TGI (MCF7 breast): > 100 µM
TGI (SW-620 colon): > 100 µM
TGI (SK-MEL-5 melanoma): > 100 µM
TGI (MDA-MB-435): > 100 µM
TGI (KM12 colon): > 100 µM
TGI (NCI-H522 lung): > 100 µM
TGI (ACHN renal): 93.7 µM
TGI (EKVX NSCLC): > 100 µM
TGI (NCI-H226 lung): > 100 µM
TGI (SF-268 CNS): > 100 µM
TGI (LOX IMVI melanoma): > 100 µM
TGI (DU-145 prostate): > 100 µM
TGI (SK-MEL-28 melanoma): > 100 µM
TGI (RPMI-8226 leukemia): 54.8 µM
TGI (M14 melanoma): > 100 µM
TGI (TK-10 renal): > 100 µM
TGI (OVCAR-4 ovarian): > 100 µM
TGI (SF-295 CNS): > 100 µM
TGI (HOP-92 NSCLC): > 100 µM
TGI (MDA-N): 84.6 µM
TGI (OVCAR-8 ovarian): > 100 µM
TGI (HL-60(TB) leukemia): 5.2 µM
TGI (CAKI-1 renal): > 100 µM
TGI (NCI-H460 lung): > 100 µM
TGI (T-47D breast): 69.1 µM
TGI (HOP-62 NSCLC): > 100 µM
TGI (RXF 393 renal): 64.4 µM
TGI (SK-OV-3 ovarian): 84.7 µM
TGI (MOLT-4 leukemia): 64 µM
TGI (CCRF-CEM leukemia): > 100 µM
TGI (IGROV1 ovarian): > 100 µM
TGI (HS 578T breast): 85 µM
TGI (786-0 renal): > 100 µM
TGI (SR leukemia): 46.1 µM

Reference: PubChem BioAssay (NCI)
